Measured values reported in EPA's ToxValDB 9.5 (doi:10.2903/j.efsa.2014.3812).
≈ marks a conversion by molar mass, not a printed value.

What was measured:
Typhlodromus pyri = experiment: LR50; higher = less toxic; settings: not reported; mortality
Apis mellifera = settings: acute, mortality
Hypoaspis aculeifer = settings: chronic/long-term
Folsomia candida = settings: chronic/long-term
Daphnia magna = settings: chronic/long-term; duration: 21 days; reproduction

## O=C(O)COc1ccc(Cl)cc1Cl [2,4-Dichlorophenoxyacetic acid]
Typhlodromus pyri
  LR50: > 3000 g/ha
Apis mellifera; dermal
  LD50: > 100 µg/piece
Apis mellifera; oral, unspecified
  LD50: 94 µg/piece
Rattus norvegicus; acute
  LD50: 486 mg/kg-day
Rattus norvegicus; acute, clinical signs
  NOAEL: 75 mg/kg-day
Rattus norvegicus; chronic
  NOAEL: 20.6 mg/kg-day
Rattus norvegicus; chronic, duration: 2 years, organ weight
  NOAEL: 5 mg/kg-day
Rattus norvegicus; subchronic, duration: 90 days, oral, histopathology: nonneoplastic
  NOAEL: 15 mg/kg-day
Hypoaspis aculeifer
  NOEC: 5 mg/kg
Tagia sp.; acute, duration: 14 days, mortality
  LC50: 350 mg/kg
Tagia sp.; chronic/long-term, duration: 8 weeks
  NOEC: 62.5 mg/kg
Folsomia candida
  NOEC: 1.25 mg/kg
Colinus virginianus; acute, oral
  LD50: 500 mg/kg-day
Colinus virginianus; reproduction developmental
  NOAEL: 100 mg/kg-day
Daphnia magna
  NOEC: 38.4 mg/L
Pimephales promelas; acute, duration: 96 hours, mortality
  LC50: 100 mg/L (≈ 452 µM)
Pimephales promelas; chronic/long-term, duration: 32 days, growth
  NOEC: 63.4 mg/L
